Assay results from US9743665B2, “Fungicidal 3-{phenyl[heterocyclylmethoxy)imino]methyl}-oxadiazolone derivatives” (BAYER CROPSCIENCE AKTIENGESELLSCHAFT, priority 2013, dated 2017).
Marks after values point to notes of the source that are not given here.

Columns and labels:
Plasmopara viticola = test: Example J: Plasmopara test (grapevines)/preventive; assay type: in vivo; conditions: grapevine plants, preventive spray, 10 ppm of active ingredient, evaluated 6 days after inoculation
Experimental: Example J: Plasmopara Test (Grapevines)/Preventive
To produce a suitable preparation of active compound, 1 part by weight of active compound is mixed with the stated amounts of solvent and emulsifier, and the concentrate is diluted with water to the desired concentration.
To test for preventive activity, young plants are sprayed with the preparation of active compound at the stated rate of application. After the spray coating has dried on, the plants are inoculated with an aqueous spore suspension of Plasmopara viticola and then remain for 1 day in an incubation cabinet at approximately 20° C. and a relative atmospheric humidity of 100%. The plant is subsequently placed for 4 days in a greenhouse at approximately 21° C. and a relative atmospheric humidity of approximately 90%. The plants are then misted and placed for 1 day in an incubation cabinet.
The test is evaluated 6 days after the inoculation. 0% means an efficacy which corresponds to that of the untreated control, while an efficacy of 100% means that no disease is observed.

Pyrenophora teres = test: Example E: in vivo preventive test on Pyrenophora teres (net blotch on barley); conditions: barley plants, preventive spray, 500 ppm of active ingredient, evaluated 14 days after inoculation
Experimental: Example E: In Vivo Preventive Test on Pyrenophora teres (Net Blotch on Barley)
(§1) The tested active ingredients are prepared by homogenization in a mixture of acetone/Dimethyl sulfoxide/Tween®, and then diluted with water to obtain the desired active material concentration.
The young plants of barley are treated by spraying the active ingredient prepared as described above. Control plants are treated only with an aqueous solution of acetone/Dimethyl sulfoxide/Tween®.
After 24 hours, the plants are contaminated by spraying the leaves with an aqueous suspension of Pyrenophora teres spores. The contaminated barley plants are incubated for 48 hours at 20° C. and at 100% relative humidity and then for 12 days at 20° C. and at 70-80% relative humidity.
The test is evaluated 14 days after the inoculation. 0% means an efficacy which corresponds to that of the control plants while an efficacy of 100% means that no disease is observed.

Phytophthora infestans [1] = assay type: in vivo; conditions: tomato plants, preventive spray, 500 ppm of active ingredient, evaluated 5 days after inoculation
[2] = pH 2.7
Experimental: (§4) Measurement of IogP values was performed according EEC directive 79/831 Annex V.A8 by HPLC (High Performance Liquid Chromatography) on reversed phase columns with the following methods:
(§5) Measurement of LC-MS was done at pH 2.7 with 0.1% formic acid in water and with acetonitrile (contains 0.1% formic acid) as eluent with a linear gradient from 10% acetonitrile to 95% acetonitrile.
(§6) Calibration was done with not branched alkan2-ones (with 3 to 16 carbon atoms) with known logP-values (measurement of logP values using retention times with linear interpolation between successive alkanones). lambda-maX-values were determined using UV-spectra from 200 nm to 400 nm and the peak values of the chromatographic signals.

Pyricularia oryzae = assay type: in vivo; conditions: rice plants, preventive spray, 500 ppm of active ingredient, evaluated 6 days after inoculation
Botrytis cinerea = test: Example B: in vivo preventive test on Botrytis cinerea (grey mould); conditions: gherkin plants, preventive spray, 500 ppm of active ingredient, evaluated 4 to 5 days after inoculation
Experimental: Example B: In Vivo Preventive Test on Botrytis cinerea (Grey Mould)
as §1
The young plants of gherkin are treated by spraying the active ingredient prepared as described above. Control plants are treated only with an aqueous solution of acetone/Dimethyl sulfoxide/Tween®.
After 24 hours, the plants are contaminated by spraying the leaves with an aqueous suspension of Botrytis cinerea spores. The contaminated gherkin plants are incubated for 4 to 5 days at 17° C. and at 90% relative humidity.
The test is evaluated 4 to 5 days after the inoculation. 0% means an efficacy which corresponds to that of the control plants while an efficacy of 100% means that no disease is observed.

Septoria tritici = test: Example G: in vivo preventive test on Septoria tritici (leaf spot on wheat); conditions: wheat plants, preventive spray, 500 ppm of active ingredient, evaluated 24 days after inoculation
Experimental: Example G: In Vivo Preventive Test on Septoria tritici (Leaf Spot on Wheat)
as §1
(§2) The young plants of wheat are treated by spraying the active ingredient prepared as described above. Control plants are treated only with an aqueous solution of acetone/Dimethyl sulfoxide/Tween®.
After 24 hours, the plants are contaminated by spraying the leaves with an aqueous suspension of Septoria tritici spores. The contaminated wheat plants are incubated for 72 hours at 18° C. and at 100% relative humidity and then for 21 days at 20° C. and at 90% relative humidity.
The test is evaluated 24 days after the inoculation. 0% means an efficacy which corresponds to that of the control plants while an efficacy of 100% means that no disease is observed.

Uromyces appendiculatus = test: Example H: in vivo preventive test on Uromyces appendiculatus (bean rust); conditions: bean plants, preventive spray, 500 ppm of active ingredient, evaluated 11 days after inoculation
Experimental: Example H: In Vivo Preventive Test on Uromyces appendiculatus (Bean Rust)
as §1
The young plants of bean are treated by spraying the active ingredient prepared as described above. Control plants are treated only with an aqueous solution of acetone/Dimethyl sulfoxide/Tween®.
After 24 hours, the plants are contaminated by spraying the leaves with an aqueous suspension of Uromyces appendiculatus spores. The contaminated bean plants are incubated for 24 hours at 20° C. and at 100% relative humidity and then for 10 days at 20° C. and at 70-80% relative humidity.
(§3) The test is evaluated 11 days after the inoculation. 0% means an efficacy which corresponds to that of the control plants while an efficacy of 100% means that no disease is observed.

Alternaria brassicae = test: Example A: in vivo preventive test on Alternaria brassicae (leaf spot on radish); conditions: radish plants, preventive spray, 500 ppm of active ingredient, evaluated 6 days after inoculation
Experimental: Example A: In Vivo Preventive Test on Alternaria brassicae (Leaf Spot on Radish)
as §1
The young plants of radish are treated by spraying the active ingredient prepared as described above. Control plants are treated only with an aqueous solution of acetone/Dimethyl sulfoxide/Tween®.
After 24 hours, the plants are contaminated by spraying the leaves with an aqueous suspension of Alternaria brassicae spores. The contaminated radish plants are incubated for 6 days at 20° C. and at 100% relative humidity.
The test is evaluated 6 days after the inoculation. 0% means an efficacy which corresponds to that of the control plants while an efficacy of 100% means that no disease is observed.

Puccinia recondita = test: Example D: in vivo preventive test on Puccinia recondita (brown rust on wheat); conditions: wheat plants, preventive spray, 500 ppm of active ingredient, evaluated 11 days after inoculation
Experimental: Example D: In Vivo Preventive Test on Puccinia recondita (Brown Rust on Wheat)
as §1, §2
After 24 hours, the plants are contaminated by spraying the leaves with an aqueous suspension of Puccinia recondita spores. The contaminated wheat plants are incubated for 24 hours at 20° C. and at 100% relative humidity and then for 10 days at 20° C. and at 70-80% relative humidity.
as §3

Phytophthora infestans [3] = assay type: in vivo; conditions: tomato plants, preventive spray (DMF/alkylaryl polyglycol ether), 500 ppm of active ingredient, evaluated 7 days after inoculation
[4] = pH 2.7; remark: listed apart in the source
Experimental: as §4, §5, §6

SMILES	Eff. % (Plasmopara viticola)	% efficacy (Pyrenophora teres)	% efficacy (Phytophthora infestans [1])	LogP [2]	further results
Cn1c(/C(=N\OCc2nc(NC(=O)OC(C)(C)C)cs2)c2ccccc2)noc1=O [Example 6]	99%	80%	100%	3.64^[a]	
Cn1c(/C(=N\OCc2nc(C#Cc3ccc(F)cc3)cs2)c2ccccc2)noc1=O [Example 13]			95%	4.09^[a]	% efficacy (Pyricularia oryzae): 79%
Cn1c(/C(=N\OCc2nc(C(=O)NCCc3ccccc3)cs2)c2ccccc2)noc1=O [Example 15]	75%		100%	3.27^[a]	% efficacy (Botrytis cinerea): 73%
Cn1c(/C(=N\OCc2nc(C(=O)Nc3ccccc3)cs2)c2ccccc2)noc1=O [Example 16]		71%	80%	3.29^[a]	% efficacy (Septoria tritici): 79%
CCCCCCNC(=O)c1csc(CO/N=C(/c2ccccc2)c2noc(=O)n2C)n1 [Example 18]		71%	99%	3.76^[a]	% efficacy (Uromyces appendiculatus): 72%
Cn1c(/C(=N\OCc2nc(C#CC3CC3)cs2)c2ccccc2)noc1=O [Example 10]			100%	3.56^[a]	% efficacy (Alternaria brassicae): 97%
Cn1c(/C(=N\OCc2nc(C#CCCCc3ccccc3)cs2)c2ccccc2)noc1=O [Example 20]			90%	4.68^[a]	% efficacy (Puccinia recondita): 78%; % efficacy (Uromyces appendiculatus): 81%
CCCCCOC(=O)Nc1ccn(CO/N=C(/c2ccccc2)c2nc(=O)on2C)n1 [Example 7, pentyl {1-[({[(Z)-(2-methyl-5-oxo-2,5-dihydro-1,2,4-oxadiazol-3-yl)(phenyl)methylene]amino}oxy)methyl]-1H-pyrazol-3-yl}carbamate]	85%				Eff. % (Phytophthora infestans [3]): 100%; chromatographic logP [4]: 3.06
